Assay results reported in ChEMBL document CHEMBL1201862, “PubChem BioAssay data set” (2004).
Active and inactive are the calls of the source.

Experiments:
[1] = target: Endoplasmic reticulum aminopeptidase 1 (Homo sapiens, UniProt Q9NZ08); assay: ERAP1 aminopeptidase inhibitors, dose response, biochemical, cherry-pick, set 2, plate reader (AID 743314)
[2] = target: Kallikrein-7 (Homo sapiens, UniProt P49862); assay: Fluorescence Intensity-based biochemical primary high throughput dose response assay to identify activators of kallikrein-7 (K7) zymogen.
[3] = Artemis endonuclease inhibitor potency, dose response, biochemical, fluorescence intensity (AID 720701); type: functional;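 note: Artemis endonuclease enzyme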
[4] = HepG2 cell cytotoxicity, dose response, cytotoxicity control, ATP luminescence, cherry-pick, activator set 2 (AID 1053143); type: functional, cell-based
[5] = test system: Vero; assay: cells; type: functional; conditions: Chlorocebus sabaeus
[6] = test system: INS1; assay: beta cell apoptosis inhibitors, cytokine rescue, dose response, luminescence, retest (AID 449756); type: functional, cell-based; conditions: Rattus norvegicus;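 note: cell death triggered by IL-1 beta plus TNF-alpha plus IFN-gamma mixture; protective hits raise ATP signal compared with cytokine alone wells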
[7] = IOSE-T80 ovarian epithelial cell cytotoxicity, dose response, cytotoxicity control for PAX8 inhibitor project, plate reader, dry powder samples (AID 743045); type: functional, cell-based
[8] = cytotoxicity in OVCAR8 ovarian cancer cells, dose response, PAX8 project, cell-based, plate reader, dry powder samples (AID 743197); type: functional; conditions: OVCAR-8
[9] = target: Paired box protein Pax-8 (Homo sapiens, UniProt Q06710); assay: inhibitors of PAX8-driven TPO luciferase reporter, dose response, RMG-I cells, cherry-pick (AID 687027); type: functional, cell-based;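 note: luciferase reporter driven by Pax8 target thyroperoxidase promoter measured by SteadyGlo luminescence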
[10] = NIH:OVCAR-3 ovarian cancer cell cytotoxicity, dose response, PAX8 inhibitor project, plate reader, dry powder samples (AID 743044); type: functional, cell-based
[11] = IGROV1 ovarian cancer cell cytotoxicity, dose response, PAX8 inhibitor project, plate reader, dry powder samples (AID 743043); type: functional, cell-based; conditions: IGROV-1
[12] = HeLa 4N DNA content increase, dose response, cell-based, IC50 (AID 1117351); type: functional
[13] = HeLa 2N DNA content increase, dose response, cell-based, IC50 (AID 1117349); type: functional

Chain of Endoplasmic reticulum aminopeptidase 1 (Q9NZ08 whole entry): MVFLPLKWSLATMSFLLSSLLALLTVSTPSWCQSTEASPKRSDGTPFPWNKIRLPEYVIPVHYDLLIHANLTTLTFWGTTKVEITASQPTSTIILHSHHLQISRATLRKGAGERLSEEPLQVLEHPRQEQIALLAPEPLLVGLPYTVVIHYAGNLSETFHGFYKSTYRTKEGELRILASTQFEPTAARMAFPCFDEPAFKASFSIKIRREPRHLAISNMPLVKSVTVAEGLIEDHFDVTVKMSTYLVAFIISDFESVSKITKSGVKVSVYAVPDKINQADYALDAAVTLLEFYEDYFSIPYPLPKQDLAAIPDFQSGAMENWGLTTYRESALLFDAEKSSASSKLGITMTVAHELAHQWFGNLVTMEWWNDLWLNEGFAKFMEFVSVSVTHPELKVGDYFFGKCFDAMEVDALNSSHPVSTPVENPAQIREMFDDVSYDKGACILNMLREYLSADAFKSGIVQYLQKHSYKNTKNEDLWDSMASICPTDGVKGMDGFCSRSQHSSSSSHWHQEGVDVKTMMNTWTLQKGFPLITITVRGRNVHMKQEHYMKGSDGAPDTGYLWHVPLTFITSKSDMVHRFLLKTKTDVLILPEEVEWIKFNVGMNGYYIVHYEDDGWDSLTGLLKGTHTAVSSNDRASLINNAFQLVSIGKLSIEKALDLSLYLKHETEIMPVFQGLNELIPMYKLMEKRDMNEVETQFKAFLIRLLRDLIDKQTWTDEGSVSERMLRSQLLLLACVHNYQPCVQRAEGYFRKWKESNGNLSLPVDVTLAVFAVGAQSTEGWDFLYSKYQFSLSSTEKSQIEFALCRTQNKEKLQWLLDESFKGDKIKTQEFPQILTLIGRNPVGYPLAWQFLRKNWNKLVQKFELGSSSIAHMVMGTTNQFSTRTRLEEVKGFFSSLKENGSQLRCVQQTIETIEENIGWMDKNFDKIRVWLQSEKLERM
Chain of Kallikrein-7 (P49862 whole entry): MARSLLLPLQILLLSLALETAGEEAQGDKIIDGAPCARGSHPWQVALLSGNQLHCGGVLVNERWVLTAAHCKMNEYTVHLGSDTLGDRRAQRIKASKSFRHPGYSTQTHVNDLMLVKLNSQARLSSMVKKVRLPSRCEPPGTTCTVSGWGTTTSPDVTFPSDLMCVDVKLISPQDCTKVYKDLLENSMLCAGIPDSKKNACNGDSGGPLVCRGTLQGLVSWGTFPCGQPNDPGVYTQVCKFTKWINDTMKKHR
Chain of Paired box protein Pax-8 (Q06710 whole entry): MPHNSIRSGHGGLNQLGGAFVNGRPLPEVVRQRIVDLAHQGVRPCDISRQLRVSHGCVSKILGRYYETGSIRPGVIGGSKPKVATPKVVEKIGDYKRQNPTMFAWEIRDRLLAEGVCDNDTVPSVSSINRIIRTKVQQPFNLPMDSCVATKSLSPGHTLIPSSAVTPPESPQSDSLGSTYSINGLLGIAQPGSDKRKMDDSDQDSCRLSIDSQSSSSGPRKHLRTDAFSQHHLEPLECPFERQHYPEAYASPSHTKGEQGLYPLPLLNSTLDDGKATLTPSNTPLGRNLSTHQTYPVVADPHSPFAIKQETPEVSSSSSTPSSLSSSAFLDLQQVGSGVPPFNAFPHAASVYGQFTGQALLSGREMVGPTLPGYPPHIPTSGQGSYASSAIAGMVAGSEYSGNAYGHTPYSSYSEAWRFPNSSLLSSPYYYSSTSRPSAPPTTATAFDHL

Compound: COC(=O)Cc1c(C)c2ccc(O)c(CNCc3ccc(OC)c(OC)c3)c2oc1=O
- AC50 [1]: 3.51 µM (active)
- EC50 [2]: > 0.858 µM (active)

Compound: COc1ccc(-c2nn(-c3ccccc3)cc2C(=O)Nc2nc(CC(C)=O)ns2)cc1
- IC50 [3]: > 20 µM (inactive)

Compound: COc1ccc2c(c1)c(/C=N/Nc1nc3ccccc3[nH]1)c(C)n2C
- AC50 [4]: 26 µM (active)
- CC50 [5]: 13.4 µM (active)
- AC50 [6]: 10.2 µM (active)

Compound: COc1ccc(S(=O)(=O)N(C)C[C@@H]2Oc3ccc(NC(=O)Nc4ccc(C(F)(F)F)cc4)cc3CC(=O)N([C@H](C)CO)C[C@@H]2C)cc1
- AC50 [7]: 13.8 µM (active)
- AC50 [8]: 22.1 µM (active)
- AC50 [9]: 4.64 µM (active)
- AC50 [10]: 6.36 µM (active)
- AC50 [11]: 16.8 µM (active)

Compound: CN1[C@@H]2c3ccc(/C=C/c4ccccc4)c(=O)n3C[C@@H]2[C@@H](CO)[C@@H]1C(=O)NC1CCCC1
- AC50 [1]: 17.5 µM (active)

Compound: Cc1c(Cc2ccccc2)c(=O)oc2cc(O)ccc12
- AC50 [1]: 12.6 µM (active)

Compound: O=c1[nH]c(=O)n([C@H]2C[C@H](O)[C@@H](CO)O2)cc1I [IDOXURIDINE]
- IC50 [12]: > 10 µM (inactive)
- IC50 [13]: > 10 µM (inactive)
